How the values were obtained:
cGMP PDE5 = biological target: T1, cGMP PDE5 (Homo sapiens, UniProt O76074); test: In vitro PDE inhibitory activity against cGMP PDE5 (IC50); assay type: biochemical; settings: cGMP PDE5 from human corpus cavernosum tissue
T1 construct: The IC50 measurements for cGMP PDE5 were based upon data generated on human corpus cavernosum tissue; from tissue; host or cells: human corpus cavernosum
From the text: (§1) The IC50 measurements for cGMP PDE5 were based upon data generated on human corpus cavernosum tissue and the IC50 measurements for rod cGMP PDE6 were based upon data generated on bovine retina tissue and wherein the selectivity ratio for cGMP PDE5 to cGMP PDE6 quoted is based upon IC50 PDE5/IC50 PDE6.

rod cGMP PDE6 = biological target: T2, rod cGMP PDE6 (Bos taurus, UniProt P11541+P23439); test: In vitro PDE inhibitory activity against rod cGMP PDE6 (IC50), used for the PDE5 versus PDE6 selectivity; assay type: biochemical; settings: ratio of IC50 for cGMP PDE5 (human corpus cavernosum) and rod cGMP PDE6 (bovine retina)
T2 construct: the IC50 measurements for rod cGMP PDE6 were based upon data generated on bovine retina tissue; from tissue; host or cells: bovine retina
T2 sequence (P11541 2-856 limits assumed): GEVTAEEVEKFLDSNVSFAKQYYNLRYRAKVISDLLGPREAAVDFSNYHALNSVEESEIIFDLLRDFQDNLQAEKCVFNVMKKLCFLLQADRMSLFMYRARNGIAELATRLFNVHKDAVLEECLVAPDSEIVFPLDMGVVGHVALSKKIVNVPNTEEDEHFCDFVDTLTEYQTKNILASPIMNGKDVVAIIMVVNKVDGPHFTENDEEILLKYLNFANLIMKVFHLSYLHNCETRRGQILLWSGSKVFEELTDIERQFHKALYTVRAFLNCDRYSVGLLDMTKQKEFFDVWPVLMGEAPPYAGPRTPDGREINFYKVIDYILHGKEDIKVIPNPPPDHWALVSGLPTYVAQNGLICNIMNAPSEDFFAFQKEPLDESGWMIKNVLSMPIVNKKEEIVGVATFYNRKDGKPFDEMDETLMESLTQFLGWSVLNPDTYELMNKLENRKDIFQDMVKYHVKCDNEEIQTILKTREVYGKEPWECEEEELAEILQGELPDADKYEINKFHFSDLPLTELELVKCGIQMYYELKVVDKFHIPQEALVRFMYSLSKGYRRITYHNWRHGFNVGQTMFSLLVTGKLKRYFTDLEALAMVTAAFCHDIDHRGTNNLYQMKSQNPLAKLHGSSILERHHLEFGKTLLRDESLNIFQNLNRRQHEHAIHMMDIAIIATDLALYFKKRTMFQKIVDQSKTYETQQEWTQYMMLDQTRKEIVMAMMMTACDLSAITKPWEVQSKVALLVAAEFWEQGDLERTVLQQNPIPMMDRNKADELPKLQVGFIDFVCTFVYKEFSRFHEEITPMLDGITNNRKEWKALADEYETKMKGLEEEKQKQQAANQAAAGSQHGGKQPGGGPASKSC
T2 sequence (P23439 2-850 limits assumed): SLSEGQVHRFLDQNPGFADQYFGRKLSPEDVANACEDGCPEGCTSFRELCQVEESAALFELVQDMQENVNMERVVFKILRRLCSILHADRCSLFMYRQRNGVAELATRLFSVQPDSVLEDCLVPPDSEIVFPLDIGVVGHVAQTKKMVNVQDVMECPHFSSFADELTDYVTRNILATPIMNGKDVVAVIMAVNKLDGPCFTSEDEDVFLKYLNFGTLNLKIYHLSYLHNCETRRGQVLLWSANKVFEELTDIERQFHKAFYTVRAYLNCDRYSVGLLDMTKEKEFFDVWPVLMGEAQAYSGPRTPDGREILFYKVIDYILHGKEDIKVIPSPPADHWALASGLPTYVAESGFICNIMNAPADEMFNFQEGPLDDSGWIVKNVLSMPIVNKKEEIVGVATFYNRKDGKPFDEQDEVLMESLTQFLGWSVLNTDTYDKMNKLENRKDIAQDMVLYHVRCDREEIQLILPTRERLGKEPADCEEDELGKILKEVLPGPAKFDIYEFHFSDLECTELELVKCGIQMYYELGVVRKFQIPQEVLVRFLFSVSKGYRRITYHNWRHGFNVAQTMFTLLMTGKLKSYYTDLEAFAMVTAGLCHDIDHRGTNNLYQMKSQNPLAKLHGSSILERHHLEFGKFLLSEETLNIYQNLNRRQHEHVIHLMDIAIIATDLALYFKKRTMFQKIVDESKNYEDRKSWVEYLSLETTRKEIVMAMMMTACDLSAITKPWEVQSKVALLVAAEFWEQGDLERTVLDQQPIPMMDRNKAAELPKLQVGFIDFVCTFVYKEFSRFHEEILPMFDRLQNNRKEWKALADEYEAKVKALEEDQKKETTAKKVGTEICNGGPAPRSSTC
From the text: as §1

Compound	IC50 (cGMP PDE5)	Selectivity (PDE 5/6) (rod cGMP PDE6)
CCCc1c2nc(-c3cc(S(=O)(=O)N4CCN(CC)CC4)cnc3OCC(C)C)[nH]c(=O)c2nn1CCOC [Example 27, 5-[2-isoButoxy-5-(4-ethylpiperazin-1-ylsulphonyl)pyridin-3-yl]-2-(2-methoxyethyl)-3-n-propyl-2,6-dihydro-7H-prazolo[4,3-d]pyrimidin-7-one]	0.85 nM	161
CCCCOc1ncc(S(=O)(=O)N2CCN(CC)CC2)cc1-c1nc2c(CC)n(CC(=O)N(C)C)nc2c(=O)[nH]1 [Example 60, 5-[2-n-Butoxy-5-(4-ethylpiperazin-1-ylsulphonyl)pyridin-3-yl]-2-[2-(dimethylamino)-2-oxoethyl]-3-ethyl-2,6-dihydro-7H-pyrazolo[4,3-d]pyrimidin-7-one]	0.45 nM	343.7
CCCCOc1ncc(S(=O)(=O)N2CCN(CC)CC2)cc1-c1nc2c(CC)n(CCN(C)C)nc2c(=O)[nH]1 [Example 17, 5-[2-n-Butoxy-5-(4-ethylpiperazin-1-ylsulphonyl)pryridin-3-yl]-2-dimethylaminoethyl-3-ethyl-2,6-dihydro-7H-pyrazolo[4,3-d]pyrimidin-7-one]	0.9 nM	254.1

The next lines start with results.

IC50 (cGMP PDE5)	Compound	Selectivity (PDE 5/6) (rod cGMP PDE6)
1 nM	CCOc1ncc(S(=O)(=O)N2CCN(CC)CC2)cc1-c1nc2c(CC)n(CC(C)C)nc2c(=O)[nH]1 [Example 5]	–
1.09 nM	CCc1c2nc(-c3cc(S(=O)(=O)N4CCN(C)CC4)cnc3OCCOC)[nH]c(=O)c2nn1CC1CCC1 [Example 53, 2-Cyclobutylmethyl-3-ethyl-5-[2-(2-methoxyethoxy)-5-(4-methylpiperazin-1-ylsulphonyl)pyridin-3-yl]-2,6-dihydro-7H-pyrazolo[4,3-d]pyrimidin-7-one]	–
1.68 nM	CCOc1ncc(S(=O)(=O)N2CCN(CC)CC2)cc1-c1nc2c(CC)n(CCOC)nc2c(=O)[nH]1 [Example 8, 1-{6-ethoxy-5-[3-ethyl-6,7-dihydro-2-(2-methoxyethyl)-7-oxo-2H-pyrazolo[4,3-d]pyrimidin-5-yl]-3-pyridylsulfonyl}-4-ethylpiperazine]	223.8
1.52 nM	CCCOc1ncc(S(=O)(=O)N2CCN(CC)CC2)cc1-c1nc2c(CC)n(CCN(C)C(C)=O)nc2c(=O)[nH]1 [Example 24]	134.9
6.4 nM	CCOc1ncc(S(=O)(=O)N2CCN(CC)CC2)cc1-c1nc2c(CC)n(C3CN(C(C)=O)C3)nc2c(=O)[nH]1 [Example 22, 2-(1-Acetylazetidin-3-yl)-5-[2-ethoxy-5-(4-ethylpiperazin-1-ylsulphonyl)pyridin-3-yl]-3-ethyl-2,6-dihydro-7H-pyrazolo[4,3-d]pyrimidin-7-one]	325.3
